{"source": "patent US11213506B2", "about": "“Combination therapy for the treatment or prevention of tumours” (QBIOTICS PTY LTD, priority 2017, dated 2022)", "key": {"A431 cells [1]": {"system": "A431 cells", "test": "Lactate dehydrogenase (LDH) release assay", "type": "cell-based, human", "conditions": "300 μM and 500 μM", "method": "(§1) A431 (human epidermoid carcinoma), MM649 (human melanoma), B16-OVA (B16-F10 mouse melanoma cell line stably transfected with chicken ovalbumin), MM415 (human melanoma) and FaDu (human hypopharyngeal carcinoma) cells were cultured in RPMI-1640, 10% FCS (complete medium) at 37° C., 5% CO2 in a humidified incubator. All cell lines used in this study were confirmed as mycoplasma negative using MycoAlert (Lonza). STR profiling was also performed to confirm the identity of the human cell lines used.\n(§2) Measuring the release of LDH is a well-recognised assay to assess plasma membrane permeabilisation and detect cell death by necrosis (Chan et al. 2013). Three cell lines (A431, MM649 and B16-OVA) were used in these assays. Cells were plated at a density of 10,000 cells per well into clear 96-well plates (Corning, #3595; 100 μl of complete media) and the resultant plates incubated overnight as previously detailed. The following day, media was aspirated from each well and 50 μl of fresh medium was inserted. Stock solutions of Compound 1 were diluted to 2× final assay concentrations (1 mM and 600 μM) and 50 μl of these dilutions added to the required wells. […] OD490 nm and OD690 nm readings were recorded for each sample using a Hybrid Synergy H4 plate reader. Absorbance readings from drug treated samples were normalized to detergent treated controls to determine the % LDH release per well."}, "MM649 cells [2]": {"system": "MM649 cells", "test": "Lactate dehydrogenase (LDH) release assay", "type": "cell-based, human", "conditions": "300 μM and 500 μM", "method": "as §1, §2"}, "[3]": {"system": "mouse stroma in SK-MEL-28 human melanoma xenografts", "test": "Gene expression changes in mouse tumour stroma (Illumina BeadChip)", "type": "in vivo, BALB/c Foxn1nu mouse", "conditions": "30 μg Compound 1 injected into the tumour", "method": "The SK-MEL-28 human melanoma cell line was injected subcutaneously (s.c) into 2 sites on the flanks of each BALB/c Foxn1nu mouse (2 million cells/site) and allowed to grow to approximately 7 mm diameter. Each tumour was then injected with 50 μl of 20% propylene glycol containing 30 μg Compound 1 or with 50 μl of 20% propylene glycol. At different times after injection a mouse was euthanased and the tumours harvested, the skin covering removed, and the intact tumours stored at −80° C.\nRNA was extracted from 30 mg of frozen tumour using the Qiagen RNeasy Plus Mini Kit, according to manufacturer's instructions, then quantitated with a NanoDrop instrument and integrity confirmed on denaturing agarose gels bearing a 1 kb DNA marker and stained with ethidium bromide.\nApproximately 500 ng of total unlabelled RNA was adjusted to a final volume of 11 μl with nuclease-free water. The RNA was incubated with 9 μl of the reverse transcriptase master mix (1 μl of T7 Oligo (dT) Primer, 2 μl of 10× first strand buffer, 4 μl of dNTP mix, 1 μl of RNase inhibitor and 1 μl of ArrayScript) at 42° C. for 2 h. This was followed by the second strand cDNA synthesis step which involved a further incubation at 16° C. for 2 hr with 80 μl of the second strand master mix (63 μL nuclease-free water, 10 μl 10× second strand buffer, 4 μl dNTP mix, 2 μl DNA polymerase and 1 μl RNase H). The cDNA was purified by filtering through a cDNA Filter Cartridge with 250 μl of cDNA binding buffer and washing with 500 μl of the wash buffer provided in the kit. Purified cDNA was eluted with 20 μl of 55° C. nuclease-free water. Each cDNA sample was incubated with 7.5 μl of the IVT master mix (2.5 μl of T7 10× reaction buffer, 2.5 μl of T7 enzyme mix and 2.5 μl biotin-NTP mix) at 37° C. for 16 h. The reaction was stopped with the addition of 75 μl of nuclease-free water to each cRNA sample. The biotinylated, amplified RNA was purified by filtering the cRNA samples through cRNA Filter Cartridges with 350 μL of cRNA binding buffer and 250 μl of 100% ethanol mixed together prior to loading onto the filters. The cRNA filter cartridges with attached RNA were then washed with 650 μl of wash buffer before eluting purified cRNA with 200 μl of 55° C. nuclease-free water.\nThe cRNA samples were heated at 65° C. for 5 min and collected by pulse centrifugation. After heating at 65° C. for 5 min, approximately 750 ng of the cRNA sample was aliquoted into separate tubes to which were added ˜5 μl of RNase-free water and 10 μl of Hyb Mix. […]\nBeadChips were read by the iScan System, and transferred via GenomeStudio into GeneSpring GX v12.5 (Agilent Technologies, Santa Clara, Calif., USA). […] The entities were filtered based on the detection score calculated by GenomeStudio where p≤0.05 was considered significant."}, "A431 cells [4]": {"system": "A431 cells", "test": "Intracellular ATP assay (CellTiter-Glo 2.0)", "type": "cell-based, human", "method": "(§3) CellTiter-Glo® 2.0 assay kits (Promega Corporation), a luminescence based assay quantitating the amount of ATP present in cells, were used to determine intracellular ATP levels in cultures of A431 and MM649 exposed to two concentrations (300 μM and 500 μM) of Compound 1. Again, cells were plated at a density of 10,000 cells per well into a clear bottomed black 96-well plates (in 100 μl of complete medium) and incubated at 37° C., 5% CO2 overnight. At the time of assay, media was aspirated from each well and 50 μl of fresh medium was inserted. Stock solutions of Compound 1 were diluted to 2× final assay concentrations (1 mM and 600 μM) and 50 μl of these dilutions added to the required wells. Ethanol only control solutions were also compiled and administered. At the indicated time points, media was gently removed making sure not to disturb the cells and 100 μl of CellTiter-Glo® 2.0 Reagent added. The resultant plate was mixed on an orbital shaker for 2 mins to induce cell lysis after which it was incubated in the dark for 10 mins. Following this, the luminescent signal in each well was determined. Luminescent signals from compound treated wells were normalised to Vehicle treated wells and expressed as % intracellular ATP vs. time."}, "MM649 cells [5]": {"system": "MM649 cells", "test": "Intracellular ATP assay (CellTiter-Glo 2.0)", "type": "cell-based, human", "method": "as §3"}}, "data": [{"smiles": "C/C=C(\\C)C(=O)O[C@@H]1[C@@H](C)[C@@]2(O)[C@H]([C@@H]3C(C)(C)[C@]13OC(=O)[C@@H](C)CC)[C@@H]1O[C@]1(CO)[C@@H](O)[C@]1(O)C(=O)C(C)=C[C@H]12", "note": "[Compound 1, 12-tigloyl-13-(2-methylbutanoyl)-6,7-epoxy-4,5,9,12,13,20-hexahydroxy-1-tiglien-3-one]", "values": [{"measurement": "LDH release compared to the controls", "setting": "A431 cells [1]", "result": "significant release of LDH"}, {"measurement": "LDH release compared to the controls", "setting": "MM649 cells [2]", "result": "significant release of LDH"}, {"measurement": "Cxcl1 expression at the tumour site", "setting": "[3]", "result": "heavily upregulated"}, {"measurement": "expression of host cytokines/chemokines important for recruitment/activation of immune cells at the tumour site", "setting": "[3]", "result": "upregulated"}, {"measurement": "host gene expression changes associated with a Th-1/M-like response: IFN-γ, TNF, IL-δ and IL-1β", "setting": "[3]", "result": "induction"}, {"measurement": "TGF beta signalling (pathway analysis of gene expression)", "setting": "[3]; t=8 h", "result": "downregulation"}, {"measurement": "intracellular ATP", "setting": "A431 cells [4]; 300 μM, after 120 minutes", "result": "approximately 50 % of the pre-treatment level"}, {"measurement": "intracellular ATP levels", "setting": "A431 cells [4]; 500 μM, after 60 minutes", "result": "almost undetectable"}, {"measurement": "intracellular ATP", "setting": "MM649 cells [5]; 300 μM, after 120 minutes", "result": "approximately 50 % of the pre-treatment level"}, {"measurement": "intracellular ATP levels", "setting": "MM649 cells [5]; 500 μM, after 60 minutes", "result": "almost undetectable"}]}]}
